Laboratory results: US8653091B2, “Pyrid-2yl fused heterocyclic compounds, and compositions and uses thereof” (Evotec AG, priority 2007, dated 2014)

Assays:
[1] = molecular target: P2X3 (Homo sapiens (Human), UniProt P56373); test: Calcium uptake assay (P2X antagonist assay), P2X3; type: cell-based; conditions: inhibition of agonist-induced calcium influx
Source text: (§1) Human P2X3 (Accession no. NM_002559), P2X2 (Accession no. NM_170682) and Rat P2X3 (Accession no. NM_031075) and P2X2 (Accession no. NM_053656) are cloned into a mammalian expression vector (e.g., pcDNA5/TO or pcDNA3 Invitrogen). The human P2X2/3 chimera clone is created as described by Neelands et al, and then cloned into an expression vector as above. Receptors are expressed in cells (e.g., HEK293 or 1321N1 (obtained from the ECACC)) via transient transfection using standard lipid mediated transfection, or by creation of stable transfectants for each receptor. For expression of the P2X2/3 heteromeric receptor, the P2X3 expression vector is stably transfected into a cell line already stably expressing P2X2. P2X2/3 heteromer function is isolated using pharmacological methods. Cell lines are maintained in DMEM+5% Glutamax, the appropriate level of selective antibiotic, and 10% heat inactivated FBS.
(§2) Functional activity of compounds at the P2X receptor is determined by measuring their ability to inhibit agonist-induced calcium influx. Compounds are tested for antagonist activity against the P2X2/3 chimera, the P2X3 homomer, or the P2X2/3 heteromer. At the start of each screening day, the agonist EC50 is determined. Compound % inhibition or IC50s are subsequently determined using a pre-determined agonist concentration (EC50-90 depending on cell line) as a stimulus. The agonists used are αβMeATP, ATP, or other ATP analogs. Compounds may be tested at concentrations ranging from 1 μM to 10 μM.
(§3) To test for antagonist activity, cells expressing the appropriate receptor are seeded onto 96 or 384 well plates 18-24 hours prior to assay. On the day of the assay, cells are loaded with calcium-sensitive fluorescent dye (e.g., Fluo-4 no wash reagent-Invitrogen cat#F36206, or the BD™ PBX Calcium Assay Kit—BD cat#640175) in Hank's Buffered Salt Solution (HESS) with up to 10 mM supplemental CaCl2. Plates are incubated at 37° C. and then equilibrated at room temperature. Antagonism of agonist-induced calcium influx is measured using a fluorescent imaging plate reader (e.g. FLIPR^TETRA, Molecular Devices, Sunnyvale, Calif.). The assay comprises two stages: a pre-treatment phase followed by a treatment phase. Compounds may be tested as follows: For the pre-treatment phase, 50 μL of 3× concentration of test compound in HBSS is added to cells containing 100 μL of dye loading media to achieve a final concentration of 1× test compound. For the treatment phase, at a set interval after pre-treatment (1-30 minutes), 50 μL of 1× test compound plus […] solution is added, resulting in a final concentration of 1× compound and 1× agonist. Fluorescence is measured at 0.1-3 second intervals—with an excitation wavelength of 494 nm and an emission wavelength of 515 nm. Responses are measured as (peak fluorescence after agonist addition) minus (baseline fluorescence prior to treatment). Percent inhibition is calculated as follows: […]
(§4) IC50 values are determined by analyzing dose response data in a 4 parameter logistic fit using GraphPad Prizm.

[2] = molecular target: P2X2/3 (Homo sapiens (Human), UniProt P56373+Q9UBL9); test: Calcium uptake assay (P2X antagonist assay), P2X2/3; type: cell-based; conditions: inhibition of agonist-induced calcium influx
Source text: as §1, §2, §3, §4

P2X2/3, sequence (Q9UBL9 whole entry): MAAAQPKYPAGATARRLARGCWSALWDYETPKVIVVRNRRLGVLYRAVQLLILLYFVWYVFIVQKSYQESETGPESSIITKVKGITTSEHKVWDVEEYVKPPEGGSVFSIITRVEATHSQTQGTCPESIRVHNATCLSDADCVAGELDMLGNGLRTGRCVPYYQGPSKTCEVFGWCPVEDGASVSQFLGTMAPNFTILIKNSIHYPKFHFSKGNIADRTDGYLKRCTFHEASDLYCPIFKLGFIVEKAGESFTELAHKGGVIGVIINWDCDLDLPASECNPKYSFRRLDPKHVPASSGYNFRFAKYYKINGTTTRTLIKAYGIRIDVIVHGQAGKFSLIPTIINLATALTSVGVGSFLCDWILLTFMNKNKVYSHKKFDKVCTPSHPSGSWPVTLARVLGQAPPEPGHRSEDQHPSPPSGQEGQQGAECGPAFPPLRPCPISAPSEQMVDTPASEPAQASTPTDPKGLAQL
P2X2/3, sequence (P56373 whole entry): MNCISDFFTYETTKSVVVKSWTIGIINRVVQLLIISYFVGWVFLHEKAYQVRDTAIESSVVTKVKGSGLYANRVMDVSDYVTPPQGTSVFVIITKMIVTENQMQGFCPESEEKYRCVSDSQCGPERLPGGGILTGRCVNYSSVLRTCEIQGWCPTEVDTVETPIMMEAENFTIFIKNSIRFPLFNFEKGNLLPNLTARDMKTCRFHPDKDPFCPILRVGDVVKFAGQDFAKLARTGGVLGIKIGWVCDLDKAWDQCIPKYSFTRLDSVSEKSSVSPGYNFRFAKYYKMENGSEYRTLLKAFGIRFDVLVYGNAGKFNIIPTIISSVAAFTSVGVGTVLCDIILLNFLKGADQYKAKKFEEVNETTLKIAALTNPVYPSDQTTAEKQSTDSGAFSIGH
P2X3, sequence (P56373 whole entry): as above

Row | Structure (SMILES) | IC50 [1] [nM] | IC50 [2] [nM]
1 | COc1ccc([C@@H](CO)Nc2ncnc3c2CN(c2ccc(C)cn2)CC3)cn1 [Compound 60, (S)-2-(6-Methoxy-pyridin-3-yl)-2-[6-(5-methyl-pyridin-2-yl)-5,6,7,8-tetrahydro-pyrido[4,3-d]pyrimidin-4-ylamino]-ethanol] | 27 | 97
2 | Cc1ccc(N2CCc3ncnc(N[C@H](CCO)c4ccc(C)nc4)c3C2)nc1 [Compound 61, (R)-3-(6-Methyl-pyridin-3-yl)-3-[6-(5-methyl-pyridin-2-yl)-5,6,7,8-tetrahydro-pyrido[4,3-d]pyrimidin-4-ylamino]-propan-1-ol] | 28 | 133
3 | Cc1ccc(N2CCc3ncnc(NC(CO)c4cccnc4)c3C2)nc1 (stereo not shown) [Compound 62, 2-[6-(5-Methyl-pyridin-2-yl)-5,6,7,8-tetrahydro-pyrido[4,3-d]pyrimidin-4-ylamino]-2-pyridin-3-yl-ethanol] | 272 | 3090
4 | Cc1ccc(N2CCc3ncnc(N[C@H](CCO)c4ccc(C(F)(F)F)nc4)c3C2)nc1 [Compound 63, (R)-3-[6-(5-Methyl-pyridin-2-yl)-5,6,7,8-tetrahydro-pyrido[4,3-d]pyrimidin-4-ylamino]-3-(6-trifluoromethyl-pyridin-3-yl)-propan-1-ol] | 24 | 335
5 | Cc1ccc(N2CCc3ncnc(N[C@H](C)c4cnc(C)nc4)c3C2)nc1 [Compound 64, [6-(5-Methyl-pyridin-2-yl)-5,6,7,8-tetrahydro-pyrido[4,3-d]pyrimidin-4-yl]-[(R)-1-(2-methyl-pyrimidin-5-yl)-ethyl]-amine] | 17 | 260
